# Data as given in patent US9603896B2, “Peptide compounds and methods of production and use thereof” (priority 2012, dated 2017).
# Square brackets hold non-standard residues; d marks the D form. Ends that are not written are not given here. Peptide text beside a SMILES is read from it. AEEA = NCCOCCOCC(=O)O
# What was measured:
# [1] = test system: human corneal epithelial cell (HCEC); assay: HCEC chemotaxis, modified Boyden chemotaxis chamber assay; format: cell-based; settings: for migration of HCECs vs buffer control: 120-146QH at 10^−4, 10^−6, 10^−8, 10^−10 M, 120-146QR at 10^−6, 10^−8 M, HB-EGF 50 ng/ml, rCAP37 250 ng/ml, 3 hours at 37° C; for migration compared with the whole CAP37 protein: 120-146QH at 10^−6 M and 10^−8M
# Protocol: The effect of buffer control (0.1% BSA in Gey's buffer), heparin binding-epidermal growth factor (HB-EGF, 50 ng/ml), recombinant CAP37 (rCAP37, 250 ng/ml), 120-146QH (10^−12M, 10^−10 M, 10^−8 M, 10^−6M, and 10^−4M,) and 120-146QR (10^−10M, 10^−8M, 10^−6M, and 10^−4M) on HCEC chemotaxis was determined by the modified Boyden chemotaxis chamber method. HCEC chemotaxis was measured in response to HB-EGF, rCAP37, and peptides 120-146QH (SEQ ID NO:29) and 120-146QR (SEQ ID NO:28) after incubation for 3 hours at 37° C. Chemotaxis is expressed as a percent migration. The buffer control (no chemoattractant) is arbitrarily assigned the value of 100% migration. Data are expressed as means±SEM and are calculated from 6 observations for each test point. **P<0.01 by Wilcoxon signed-rank test as compared to controls.
# Chemotaxis assays were performed using the modified Boyden chemotaxis chamber assay. Peptide 120-146QH was used at 10^−4 M, 10^−6 M, 10^−8 M, 10^−10 M, and 10^−12 M, and peptide 120-146QR was used at 10^−4 M, 10^−6M, 10^−8M, and 10^−10 M.
# in vivo = settings: rat, iv, 20 mg/kg
# Protocol: The purpose of this example was to assess the pharmacokinetics, distribution, and excretion of ^14C-BCC03-5RMP (SEQ ID NO:23) following a single intravenous administration to male rats. Pharmacokinetic, excretion, and distribution profiles of ^14C-BCC03-5RMP-derived radioactivity were examined in male Sprague Dawley rats following a single intravenous administration of ^14C-BCC03-5RMP (20 mg/kg; 125 μCi/kg). ^14C-BCC03-5RMP was formulated in 5% (v:v) dextrose in water, pH 5.5 and was administered at a dose volume of 5 mL/kg. For assessment of pharmacokinetics of total radioactivity (Group 1), blood was collected at 0.25, 0.5, 1, 2, 4, 8, 24, 48, and 72 hours postdose. For assessment of excretion profiles, urine was collected from 0-8 and 8-24 hours postdose, and at 24-hour intervals through 168 hours postdose. Feces was collected at 24-hour intervals through 168 hours postdose. For assessment of distribution profiles, one animal/time point was sacrificed at 0.25, 1, 4, 24, and 72 hours postdose, and the carcasses were prepared for quantitative whole-body autoradiography (QWBA). Concentrations of radioactivity in whole blood, plasma, urine, feces (after oxidation), cage rinse, cage wash, and carcass were determined by liquid scintillation counting (LSC). Tissue concentrations were calculated by interpolation from each standard curve using MCID™ analysis software (InterFocus Imaging Ltd Corp., UK). Pharmacokinetic parameters for total radioactivity in blood and plasma were calculated using WinNonlin Professional Edition (version 5.2, Pharsight Corporation, St. Louis, Mo.).
# [2] = test system: Pseudomonas aeruginosa ATCC® 27853™; format: cell-based; settings: gentamicin 4 μg/ml
# Protocol: The three peptide compounds BCC01-5RMP (SEQ ID NO:21), BCC02-5RMP (SEQ ID NO:22), and BCC03-5RMP (SEQ ID NO:23) were assayed for in vitro bactericidal activity against Pseudomonas aeruginosa, Escherichia coli, Salmonella typhimurium, and Acinetobacter baumannii. […] The CFU remaining at the end of 60 to 180 minute incubation was determined, and the data plotted as a log reduction in CFU/ml.
# Tables 4-6 show the results of various peptides and peptide compounds against P. aeruginosa and E. coli strains. Tables 4 and 5 show the results of an investigation of the effects of peptide or peptide compounds BCC03-5RMP (SEQ ID NO:23), BCC03-MP (SEQ ID NO:24) and BCC03-5R (SEQ ID NO:20) against P. aeruginosa ATCC® strain 27853™ and E. coli ATCC® strain 25922™ (American Type Culture Collection, Manassas, Va.). […] Table 6 compares the activity of several other compounds, including the “5R” versions of BCC01, i.e., SEQ ID NO:18 (which comprises SEQ ID NO:1 with five additional arginines), the “5R” version of BCC02 (i.e., SEQ ID NO:19, which comprises SEQ ID NO:2 with five additional arginines), and BCC03-5RMP (SEQ ID NO:23), and BCC03-MP (SEQ ID NO:24, i.e., without the five additional R residues). The data generally indicate the superiority of BCC03-5RMP (SEQ ID NO:23) against E. coli, and the superiority of the 5R or 5RMP versions of the peptide over the “AEEA only” peptide against P. aeruginosa.
# (§1) For FIGS. 10-13, in vitro bactericidal assays were performed using a starting inoculum of 1×10^6 CFU/ml of the bacterial suspension. The CFU remaining at the end of the 60-180 minute incubation was determined, and the data was plotted as log reduction in CFU/ml.
# (§2) In particular, each of the test peptides (CAP37 peptides 120-146WR, 120-146WH, and 95-122 (SEQ ID NOs: 30, 31, and 26, respectively)) was used at 25, 12.5, 6.25, and 3.12 μM. Gentamicin was used at 4 μg/ml. 1×10^6/ml Acinetobacter baumannii ATCC® BAA-747″ or Pseudomonas aeruginosa ATCC® 27853™ (American Type Culture Collection, Manassas, Va.) were incubated with the peptides, negative buffer control (tryptone saline), and positive control gentamicin at pH 5.5 or 7.2. A 60 minute incubation was used for Acinetobacter baumannii ATCC® BAA747™, while a 180 minute incubation was used for Pseudomonas aeruginosa ATCC® 27853™. 50 μl aliquots were plated out on agar plates and incubated overnight. Colony forming units were counted after overnight incubation and CFU/ml calculated.
# For FIG. 14, 1×10^6/ml Pseudomonas aeruginosa ATCC® 27853™ were incubated with each of the test peptides (CAP37 peptides 120-146WR, 120-146WH, 120-146QR, 120-146QH, 120-146QR-5RMP, and 120-146QH-5RMP (SEQ ID NOs: 30, 31, 28, 29, 32, and 33, respectively)) at 150, 75, and 37.5 μg/ml, or negative buffer control (tryptone saline), for 180 minutes at pH 5.5. 50 μl aliquots were plated out on agar plates and incubated overnight. Colony forming units were counted after overnight incubation and CFU/ml calculated.
# [3] = test system: Acinetobacter baumannii ATCC® BAA-747™; assay: In vitro bactericidal assay (CFU remaining, log reduction); format: cell-based; settings: 60 minutes, peptides up to 25 μM, gentamicin 4 μg/ml
# Protocol: The three peptide compounds BCC01-5RMP (SEQ ID NO:21), BCC02-5RMP (SEQ ID NO:22), and BCC03-5RMP (SEQ ID NO:23) were assayed for in vitro bactericidal activity against Pseudomonas aeruginosa, Escherichia coli, Salmonella typhimurium, and Acinetobacter baumannii. The starting inoculum for all experiments was 1×10^6 colony forming units (CFU)/ml. The CFU remaining at the end of 60 to 180 minute incubation was determined, and the data plotted as a log reduction in CFU/ml.
# as §1, §2
molecule,measurement,setting,value
GTRCQVAGWGSQRSGGRLSRFPRFVNV [Peptide 120-146QR],migration of HCECs vs buffer control,[1],significantly increase migration
same,migration compared with the whole CAP37 protein,[1],less than the migration obtained with the whole protein
CC[C@H](C)[C@H](NC(=O)[C@H](CC(C)C)NC(=O)[C@H](C)NC(=O)CNC(=O)CNC(=O)[C@H](CS)NC(=O)[C@H](Cc1ccccc1)NC(=O)[C@H](Cc1c[nH]cn1)NC(=O)[C@H](CCCNC(=N)N)NC(=O)CNC(=O)[C@H](CCC(N)=O)NC(=O)[C@H](CC(N)=O)NC(=O)[C@H](CCCNC(=N)N)NC(=O)[C@H](CCCNC(=N)N)NC(=O)[C@H](CCCNC(=N)N)NC(=O)[C@H](CCCNC(=N)N)NC(=O)COCCOCCNC(=O)COCCOCCN)C(=O)N[C@@H](Cc1c[nH]cn1)C(=O)N[C@@H](C)C(=O)N[C@@H](CCCNC(=N)N)C(=O)N[C@@H](Cc1ccccc1)C(=O)N[C@H](C(=O)N[C@@H](CCSC)C(=O)N[C@H](C(=O)N[C@@H](C)C(=O)N[C@@H](C)C(=O)N[C@@H](CO)C(=O)N[C@@H](CO)C(=O)N[C@@H](Cc1ccccc1)C(=O)N[C@@H](CCC(N)=O)C(=O)N[C@@H](CCCNC(=N)N)C(=O)O)[C@@H](C)O)C(C)C [^14C-BCC03-5RMP] (H-[AEEA][AEEA]RRRRNQGRHFCGGALIHARFVMTAASSFQR-OH; N-terminus and C-terminus assumed),blood plasma ratio,"in vivo; male, Sprague Dawley, total radioactivity",0.689 to 3.11
same,"C0, Radio-equivalents in blood",in vivo,38500 ± 2160 ng eq/g
same,"C0, Radio-equivalents in plasma",in vivo,51800 ± 4160 ng eq/g
same,"Clearance of radioactivity, plasma relative to blood",in vivo,approximately 2 fold
same,blood:brain barrier passage of radioactivity,in vivo,crossed the blood:brain barrier
same,blood:testis barrier passage of radioactivity,in vivo,crossed the blood:testis barrier
same,"exposure (AUC0-∞), blood relative to plasma",in vivo,approximately 2 fold
same,"tissue:plasma concentration ratios, majority of tissues",in vivo,greater than one
same,"tissue:plasma concentration ratios, renal, adrenal, pancreatic, and pituitary tissues",in vivo,up to 103
same,"volume of distribution of total radioactivity, blood relative to plasma",in vivo,approximately 1.6 fold
GTRCQVAGWGSQHSGGRLSRFPRFVNV [Peptide 120-146QH],migration of HCECs vs buffer control,[1],significantly increase migration
same,migration compared with the whole CAP37 protein,[1],comparable to the migration obtained with the whole CAP37 protein
gentamicin [reference compound],activity against P. aeruginosa,[2]; 120-146WR at 25 μM,highly active
same,reduction of CFU/ml,"[2]; pH 5.5, 180 minutes, highest concentrations of peptides (25 μM)",2 logs
same,bactericidal activity against Acinetobacter baumannii,[3]; pH 5.5,unable to kill the bacteria
same,bactericidal activity against Acinetobacter baumannii,[3]; pH 7.2,active against the bacteria
